Data on 15 compounds can be found in patent US4835160A, “Derivatives of pyridoindole, having anti-tumor properties” (Sanofi, priority 1986, dated 1989).

“And” between values parts separate entries of the source, which are not always exact repeats. Equal values may be shown once. Where a name gives a salt, the structure may show the parent alone. Read-outs that look alike come from different tables or passages of the source. Where only a bound is given, the exact number is not on record here.

The test system of data set [1] is leukemia tumour line L 1210. In words: In vitro cytotoxic activity on leukemia tumour line L 1210. In kind it is cell-based. The note with it: L 1210, 48 hours contact, 37° C., read-out: I D 50 (concentration which inhibits the proliferation of the cells by 50%). As for the experimental part: (1) In vitro: ([…] et al., Chem. Biol. Interaction, 1979, 25, 45-58). The cytotoxic activity of the compounds of the invention has been evaluated by in vitro tests. These tests consist of adding increasing concentrations of the compound under test to a cellular culture of the leukemia tumour line L 1210 in an exponential phase of growth. The cellules are incubated at 37° C. in a CO2 incubator and counted every 24 hours. The calculation of the I D 50 (concentration of the product, expressed in 1^-1 micromole, which inhibits the proliferation of the cells by 50%) is made after 48 hours contact.

The test system of another data set is leukemia L 1210. Kind of data set: Test for leukemia L 1210, IP/IP, D1-D5. In kind it is in vivo, CDF1 hybrid mice. Conditions: 20 mg/kg IP. As for the experimental part: (§1) The antitumour activity was tested in vivo on various tumours inoculated in various ways according to the following general protocol:
(§2) All the male or female mice are inoculated on day D0 with a known quantity of viable tumour cells for ascitic tumours or with a known tumour fragment for solid tumours.
(§3) They are then distributed into various groups. Each group, corresponding to the animals treated by the product under test, is made up of 10 mice. The product under test is dissolved in distilled water and it is administered n times (Dx-Dy), n, y, and x varying according to the protocol chosen, at the rate of 0.1 ml of solution per 10 g by weight of mice treated and at specific doses for each protocol.
(§4) The "negative control" group, corresponding to the animals which are not treated by the product, contains 2√N animals, N being equal to or greater than the total number of mice treated by the product in the same experiment.
(§5) Finally, the tests can also be carried out at the same time as the study of a group called "positive control", of ten animals, which is treated by a molecule, known for its antitumour activity and which can vary according to the protocol chosen, in the same conditions as the groups treated by the product under test.
(§6) The antitumour activity is evaluated, in the case of ascitic tumours, by considering the increase in the survival time of the animals treated in comparison to that of the animals in the "negative control" group, according to the formula: [formula]
(§7) Also, a product is considered as toxic at the dose studied when this T/C value is equal to or less than 85%. In addition, a product is also considered as toxic at the dose studied when the weight variation, expressed in grams and calculated by the formula: […]
(c) Test for leukemia L 1210, IP/IP, D-5 (GERAN et al., Cancer cheomother.,1972, 2, 07-57).
The tests are carried out with CDF1 hybrid mice inoculated by intraperitoneal route with 10^5 leukemia cells from the L 1210 line. The compound under test is administered for 5 days (D1-D5) by intraperitoneal route. The positive control for the test is 5-fluorouracile administered in the same conditions. The number of surviving animals is evaluated on day D60.

The subject of a further data set is leukemia P 388. In words: Test of leukemia P 388; IP/IP, D1-5. In kind it is in vivo, CDF1 hybrid mice. Conditions: D1-D5; for Number of survivors: day D30; for T/C %: survival time. How it is done: (2) In vivo: (GERAN et al., Cancer Chemother., 1972, 2, 07-57):
as §1, §2, §3, §4, §5, §6
The criterion for activity varies according to the protocol.
as §7
"Average weight of the group measured on day 5--Average weight of the same group measured on day 1"
is equal to or less than 4 g.
(a) Test of lelukemia P 388; IP/IP, D1-5 (GERAN et al., Cancer Chemother., 1972, 2, 07-57).
(§8) The tests are carried out with CDF1 hybrid mice inoculated by intraperitoneal route with 10^6 leukemia cells from the P 388 line. The compound under test is administered for 5 successive days (D1-D5) by intraperitoneal route. The positive control for the test is 5-fluorouracile which is administered in the same conditions. The number of surviving animals is evaluated on day D30.

Another data set concerns leukemia P388. Kind of data set: Test for leukemia P388, IP/IP, D1. In kind it is in vivo, CDF1 hybrid mice. The note with it: 200 mg/kg IP. As for the experimental part: as §1, §2, §3, §4, §5, §6, §7, §8
(b) Test for Leukemia P388, IP/IP, D1 (GERAN et al. Cancer chemother., 1972, 2, 07-57).
The test is carried out according to the preceding protocol, the compound under test being administered only on day D1.

For a further data set, the system named is melanoma B 16. Kind of data set: Test for melanoma B 16. The class given is in vivo, BDF1 hybrid mice. The note with it: 0.5 mg/kg IP, D1-D9. As for the experimental part: as §1, §2, §3, §4, §5, §6, §7
(d) Test for melanoma B 16 (GERAN et al., Cancer Chemother., 1972, 2, 07-75).
The tests are carried out with BDF1 hybrid mice inoculated by intraperitoneal route with 0.5 ml of a homogenate of melanoma B 16 made up from 1 g of tumour in 10 ml of physiological serum. The compound under test is administered for 9 days (D1-D9) by intraperitoneal route. The positive control for the test is Cis-Platine administered in the same conditions. The number of surviving animals is evaluated on day D60.

The test system of another data set is reticulosarcoma M5-M5076. Kind of data set: Test for reticulosarcoma M5-M5076. The class given is in vivo, BDF1 hybrid mice. The note with it: 160 mg/kg IP, D1,5,9,13,17. As for the experimental part:
as §1, §2, §3, §4, §5, §6, §7
The tests are carried out with BDF1 hybrid mice inoculated by intraperitoneal route with 10^6 cells of the M5-M5076 line. The compound under test is administered 5 times successively in sequence (D1,5,9,13,17) by intraperitoneal route. The positive control for the test is cyclophosphamide administered in the same conditions. The number of surviving animals is evaluated on day D75.

Consider `COc1ccc2c(c1)c1c(NCC(C)CN(C)C)ncc(C)c1n2C` (racemic) [Derivative No. 20, 4,5-dimethyl-1-(3-dimethylamino-2-methylpropylamino)-8-methoxy-5pyrido[4,3-b]i dihydrochloride], for which the IC50 in data set [1] (Mus musculus, L1210, 48 h) came out at 1000 nM.
As to `Cc1cnc(NCC(C)CN(C)C)c2c3cc(O)ccc3n(C)c12` (racemic) [Derivative No. 21, 4,5-dimethyl-1-(3-dimethylamino-2-methylpropylamino)-8-hydroxy-5H-pyrido[4,3-b]dihydrochloride], in data set [1] (Mus musculus, L1210, 48 h), the IC50 is 10 nM.
Regarding `O=c1[nH]cc(F)c(=O)[nH]1` [5-Fluorouracile, 5-fluorouracile, reference compound], the “Median day of survival” value in the data set with leukemia L 1210 is 16.0 days; in the data set with leukemia P 388 (20 mg/kg IP), 20.1 days and 18.9 days and 19 days and 17.75 days and 16.7 days and 18.8 days and 20 days and 17 days; in the data set with leukemia P388, 19.0 days. The “Variation by weight” value was -0.5 g in the data set on leukemia L 1210 and -3.2 g with leukemia P388. The Number of survivors with leukemia L 1210 (day D60), in the data set on leukemia P 388 (20 mg/kg IP) and with leukemia P388 (day D30) was 0/10 in each case. The T/C % in the data set with leukemia L 1210 (survival time) was 182%; in the data set on leukemia P 388 (20 mg/kg IP), 166% and 164% and 168% and 160% and 147% and 173% and 171% and 154%; in the data set on leukemia P388 (survival time), 173%.
On to `[NH2][Pt]([NH2])([Cl])[Cl]` [Cis-Platine, reference compound], for which, in the data set with melanoma B 16, the “Median day of survival” value is 36 days and 30.0 days and 38.75 days; the “Variation by weight” value is recorded as -0.6 g. The Number of survivors in the data set on melanoma B 16 (day D60) is recorded as 0/10. The T/C % in the data set on melanoma B 16 (survival time) was 131% and 126% and 141%.
Take `O=P1(N(CCCl)CCCl)NCCCO1` (centres unmarked) [Cyclopnospnamide, cyclophosphamide, reference compound]: the “Median day of survival” value with reticulosarcoma M5-M5076 was > 60 days and 57.0 days. The Number of survivors in the data set on reticulosarcoma M5-M5076 (day D75) was 9/10 and 0/10. Further, the T/C % with reticulosarcoma M5-M5076 (survival time) is > 239% and 219% and > 234%.
With `CCN(CC)CCCNc1ncc(C)c2[nH]c3ccccc3c12` [Derivative 1], the IC50 in data set [1] (Mus musculus, L1210, 48 h) is 200 nM.
For the compound `Cc1cnc(NCCNCCO)c2c1[nH]c1ccccc12` [Derivative 3], in data set [1] (Mus musculus, L1210, 48 h), the IC50 amounted to 1140 nM.
In the case of `Cc1cnc(NCCCN(C)C)c2c1[nH]c1ccccc12` [Derivative No. 2, 1-(3-dimethylaminopropylamino)-4-methyl-5H-pyrido-[4,3-b]indole], the IC50 in data set [1] (Mus musculus, L1210, 48 h) turned out to be 160 nM.
On to `CCNCCCNc1ncc(C)c2[nH]c3ccc(OC)cc3c12` [Derivative No. 5, 1-(3-ethylaminopropylamino)-8-methoxy-4-methyl-5H-pyrido[4,3-b]indole], for which, in data set [1] (Mus musculus, L1210, 48 h), the IC50 is 1200 nM.
On to `CCN(CC)CCCNc1ncc(C)c2c1c1cc(OC)ccc1n2C` [Derivative No. 6, 1-(3-diethylaminopropylamino)-4,5-dimethyl-8-methoxy-5H-pyrido[4,3-b]indole], for which the IC50 in data set [1] (Mus musculus, L1210, 48 h) was determined as 100 nM.
For `CCN(CC)CCCNc1ncc(C)c2[nH]c3ccc(O)cc3c12` [Derivative No. 8, 1-(diethylaminopropylamino)-8-hydroxy-4-methyl-5H-pyrido[4,3-b]indole], in the data set with leukemia P 388 (0.625 mg/kg IP), the “Median day of survival” value is 15.1 days, the “Variation by weight” value is -0.5 g, the Number of survivors is 0/10 and the T/C % stood at 136%. Also, in the data set with leukemia P 388 (1.25 mg/kg IP), the “Median day of survival” value amounted to 15.7 days, the “Variation by weight (g)” value was “+0.6 g”, the Number of survivors is listed as 0/10 and the T/C % turned out to be 141%. For the same compound, in the data set on leukemia P 388 (2.5 mg/kg IP), the “Median day of survival” value turned out to be 16.1 days, the “Variation by weight” value was -1.2 g, the Number of survivors is on record as 0/10 and the T/C % is on record as 147%. Besides, in the data set with leukemia P 388 (5 mg/kg IP), the “Median day of survival” value was found to be 19.4 days, the “Variation by weight” value is on record as -0.8 g, the Number of survivors is given as 0/10 and the T/C % stood at 175%. In the data set with leukemia P 388 (10 mg/kg IP), the “Median day of survival” value amounted to 12.0 days, the “Variation by weight” value is -1.1 g, the Number of survivors was 0/10 and the T/C % was 108%. Besides, in data set [1], the IC50 was determined as 80 nM.
On to `CCN(CC)CCCNc1ncc(C)c2c1c1ccccc1n2C` [Derivative No. 16, 1-(3-diethylaminopropylamino)-4,5-dimethyl-5H-pyrido[4,3-b]indole dihydrochloride], for which, in data set [1] (Mus musculus, L1210, 48 h), the IC50 is 720 nM.
Turning to `CCN(CC)CCNc1ncc(C)c2c1c1cc(OC)ccc1n2C` [Derivative No. 18, 1-(2-diethylaminoethylamino)-4,5-dimethyl-8-methoxy-5H-pyrido[4,3-b]indole dihydrochloride], the IC50 in data set [1] (Mus musculus, L1210, 48 h) was 1200 nM.
As to `CCN(CC)CCCCNc1ncc(C)c2c1c1cc(OC)ccc1n2C` [Derivative No. 22, 1-(4-diethylaminobutylamino)-4,5-dimethyl-8-methoxy-5H-pyrido[4,3-b]indoledihydrochloride], in data set [1] (Mus musculus, L1210, 48 h), the IC50 was determined as 1300 nM.
Take `CCN(CC)CCCCNc1ncc(C)c2c1c1cc(O)ccc1n2C` [Derivative No. 23, 1-(4-diethylaminobutylamino)-4,5-dimethyl-8-hydroxy-5H-pyrido[4,3-b]indoledihydrochloride]: the IC50 in data set [1] (Mus musculus, L1210, 48 h) worked out at 310 nM.
